Source: PubChem BioAssay AID1985 (Southern Research Specialized Biocontainment Screening …, 2009)

What follows are compounds tested on S. Typhi PhoP-promoter GFP reporter, fluorescence, 4 h (assay: modified counter assay using GFP fluorescence, PhoP regulon inhibitor project, dose response (AID 1985)).

Row | Structure (SMILES) | IC50 [µM]
1 | O=c1ccc2cc3c([nH]c4ccc(Br)cc43)oc-2c1O | 22.5
2 | COc1ccc(OCc2n(CC(=O)OC3CC(C)CCC3C(C)C)c3ccccc3[n+]2C)cc1 (centres undefined) | 80.6
3 | Cc1nonc1C(=O)N/N=C/c1ccc([N+](=O)[O-])o1 | 24.7
4 | CCCCCCCCC[n+]1cccc2c3ccccc3ccc21 | 26.8
5 | Cc1cc([N+](=O)[O-])nn1CC(=O)N/N=C/c1ccccc1O | 35.4
6 | CN1CCN(C2=Cc3ccccc3Sc3cc(F)c(Cl)cc32)CC1 | 106
7 | C[C@H]1O[C@@H](n2cc(F)c(=O)[nH]c2=O)[C@H](O)[C@@H]1O | 13.2
8 | CCOC(=O)N1CCN(C(=O)c2cn(CC)c3cc(N4CCN(C)CC4)c(F)cc3c2=O)CC1 | 7.67
9 | O=C(Nc1ccc(Cl)cc1)Nc1ccc2c(c1)N1CCN=C1S2 | 57.1
10 | CCN1CCCC1CNC(=O)C1CCN(Cc2nc(-c3cccc(Br)c3)oc2C)CC1 (centres undefined) | 143
11 | CO[C@@]1(NC(=O)Cc2cccs2)C(=O)N2C(C(=O)O)=C(COC(N)=O)CS[C@@H]21 | 40.5
12 | c1ccc2cc(CSCc3nc4ccccc4[nH]3)ccc2c1 | 103
13 | COc1cccc(/C=N/NC(=O)c2ccoc2C)c1O | 88.1
14 | O=C(Cn1nc(C(F)F)cc1C(F)F)NNC(=S)Nc1ccc([N+](=O)[O-])cc1 | 64.2
15 | COc1ccc(C(=O)N/N=C/c2sc3ccccc3c2O)cc1 | 44.2
16 | CCCCCC(=O)NNC(=S)NC(C)=O | 22.9
17 | CCCCCCCCCCOC(=O)C[N+](C)(C)CC1CCCCC1O (centres undefined) | 65
18 | COc1cc(C)c(Cc2cnc(N)nc2N)cc1OC | 2.4
19 | Cc1ccc2c(c1)C1CN(C)CCC1N2Sc1ccccc1[N+](=O)[O-] (centres undefined) | 135
20 | CN(Cc1ccccc1)CC(O)COc1ccc(CNCc2ccc(Cl)s2)cc1 (centres undefined) | 39.1
21 | CN1CCN(c2nc3cc(C(F)(F)F)ccc3n3cccc23)CC1 | 101
22 | COC(=O)C1C(O)C(C)C(O)C(C)/C=C\C=C(/C)C(=O)Nc2c(C)c(OC(C)=O)c3c(c2O)C(=O)C(C)=C2OCOC(=C23)/C(C)=C/C(C)(O)C(O)C(C)C1O (centres undefined) | 24.4

Row | Structure (SMILES) | IC50 [µM]
23 | Cc1ccc(OCc2nnc(NC(=O)c3cccnc3)s2)cc1 | 13.9
24 | CCN(CC)c1ccc(CNc2nc3ccccc3n2C)cc1 | 97.3
25 | Cc1ccc(Nc2nc(N)c3ccccc3n2)cc1Cl | 68.5
26 | CC1=NOC(=O)/C1=C/c1ccc(O)cc1 | 117
27 | CCOC(=O)c1c(N)sc(C(=O)Nc2ccc3c(c2)OCO3)c1C | 137
28 | Oc1ccc(C[C@@H]2CNCCN2CCCCC2CCCCC2)cc1 | 74.3
29 | Clc1cccc(/C=N\Nc2nccs2)c1 | 58.9
30 | O=C(Nc1ccccc1)Oc1ccc[nH]c1=O | 55.8
31 | Cc1ccc2nc(N(CCCN(C)C)C(=O)c3ccc4c(c3)CCCC4)sc2c1 | 78.5
32 | C/C(Cn1nnc([N+](=O)[O-])n1)=N\NC(=O)c1ccccc1 | 149
33 | Clc1ccc(CN2C3=NCCN3c3ccccc32)cc1 | 89.4
34 | C[n+]1c2n(c3ccccc31)N=C(c1ccc(-c3ccccc3)cc1)CS2 | 38
35 | CN1CCN(C(c2ccc(C(F)(F)F)cc2)c2ccc3cccnc3c2O)CC1 (centres undefined) | 34.9
36 | CCN1/C(=C/C(C)=C/c2sc3ccccc3[n+]2CC)Sc2ccccc21 | 12.6
37 | COc1ccc(CNCCc2cccc(F)c2)c2ccccc12 | 81.7
38 | Cc1cc(C)c2c(N)c3ccccc3nc2n1 | 86
39 | C#CCOCCOCCOCCNc1nc(N2CCN(C(=O)[C@H]([C@@H](C)CC)n3cc([C@@H](N)Cc4ccc(O)cc4)nn3)CC2)nc(N2CCN(C(=O)[C@H](Cc3cc4ccccc4[nH]3)n3cc([C@@H](N)CC(C)C)nn3)CC2)n1 | 150
40 | N=c1n(CC(=O)c2ccc(Br)s2)c2ccccc2n1Cc1ccccc1 | 47.2
41 | CN1/C(=C\C=C\C2=[N+](C)c3ccc4ccccc4c3C2(C)C)C(C)(C)c2ccccc21 | 3.62
42 | CN1CCN(CC(=O)N2CCn3c4c(c5cc(C6CCCCC6)ccc53)CCCC42)CC1 (centres undefined) | 76.5
43 | COCCCNC(=S)NNC(=O)c1ccccn1 | 25.7
44 | NC(=O)SCC(=O)Nc1ccc(Cl)c(Cl)c1 | 52.2

Row | Structure (SMILES) | IC50 [µM]
45 | OC(c1cc(C(F)(F)F)nc2c(C(F)(F)F)cccc12)C1CCCCN1 (centres undefined) | 37.6
46 | Oc1cccc2ccc(Nc3ccccn3)nc12 | 11.6
47 | Cc1ccc(C(=O)NCCN2C3=NC[C@@H](Cc4ccccc4)N3C[C@H]2Cc2ccc(O)cc2)cc1Br | 121
48 | O=C(N/N=C/c1ccc([N+](=O)[O-])s1)c1ccccc1Br | 27.7
49 | c1ccc(Sc2cccc3ccccc23)c(CNC2=NCCN2)c1 | 80
50 | CNCCCC1Sc2ccccc2Oc2ccccc21 (centres undefined) | 144
51 | O=C(N/N=C/c1cc(Cl)ccc1O)c1ccncc1 | 22
52 | NC(=O)SCC(=O)Nc1ccc(Cl)cc1 | 45.1
53 | O=C(O)c1cn(C2CC2)c2cc(N3CCN(S(=O)(=O)c4ccc5c(c4)OCCO5)CC3)c(F)cc2c1=O | 28.2
54 | COc1ccc(Nc2c3ccccc3nc3ccccc23)cc1 | 53.8
55 | CC[C@H]1OC(=O)[C@H](C)[C@@H](O[C@H]2C[C@@](C)(OC)[C@@H](O)[C@H](C)O2)[C@H](C)[C@@H](O[C@@H]2O[C@H](C)C[C@H](N(C)C)[C@H]2O)[C@](C)(O)C[C@@H](C)[C@@H]2N[C@@H](COCCOC)O[C@H]([C@H]2C)[C@]1(C)O | 45.4
56 | C=CC1=C(C(=O)O)N2C(=O)[C@@H](NC(=O)/C(=N\O)c3csc(N)n3)[C@H]2SC1 (stereo in doubt) | 34.6
57 | CO[C@H]1/C=C/O[C@@]2(C)Oc3c(C)c(O)c4c(O)c(c(C=NN5CCN(C)CC5)c(O)c4c3C2=O)NC(=O)/C(C)=C\C=C\[C@H](C)[C@H](O)[C@@H](C)[C@@H](O)[C@@H](C)[C@H](OC(C)=O)[C@@H]1C | 32.6
58 | C=CCNc1ncnc2c1[nH]c1ccc(C)cc12 | 56.3
59 | CN(C)CCCNc1c2ccccc2nc2ccccc12 | 64.3
60 | O=C(N/N=C/c1ccccc1O)c1ccncc1 | 24.7
61 | CCCCOc1ccc(Br)cc1CSC(=N)N | 56.5
62 | COc1cc(C(=O)N/N=C/c2ccc(OC(=O)c3cccc(C)c3)c(OC)c2)ccc1O | 20.9
63 | CS(=O)(=O)c1ccc([C@@H](O)[C@@H](CF)NC(=O)C(Cl)Cl)cc1 | 4.74
64 | OC(CNCCc1ccc(Cl)cc1Cl)COc1ccccc1 (centres undefined) | 71.7
65 | O=C1NCCCC1C(=O)N/N=C/c1cc([N+](=O)[O-])ccc1O (centres undefined) | 114
66 | COc1cc(/C=C2/C(=O)NN(c3ccc(F)cc3)C2=O)cc([N+](=O)[O-])c1O | 34.7

Row | Structure (SMILES) | IC50 [µM]
67 | O=C(CSC1=NC(=O)C(c2ccccc2)C(=O)N1)Nc1cccc(Cl)c1 (centres undefined) | 20.6
68 | NC1=NC[C@H](CC2CCCCC2)N1CCc1cc(C(F)(F)F)cc(C(F)(F)F)c1 | 37.6
69 | O=C(Nc1nonc1NC(=O)c1cccs1)c1cccs1 | 100
70 | CCCCN(CCCC)C(=O)c1cn(CC)c2cc(N3CCN(C)CC3)c(F)cc2c1=O | 7.43
71 | CN1CCN(C2=Cc3cc(Cl)ccc3Sc3cc(F)ccc32)CC1 | 137
72 | Oc1c(Br)cc(Br)cc1C=Nc1ccc2[nH]ncc2c1 | 48.6
73 | Nc1nc2ccccc2n1Cc1ccc(Cl)c(Cl)c1 | 54.6
74 | NCCCC[C@H]1CN=C(N)N1CCC12CC3CC(CC(C3)C1)C2 | 131
75 | Cc1cc(N=Nc2ccc(C)c(N=Nc3cc(C)c(N)cc3N)c2)c(N)cc1N | 108
76 | N/C(=N\OS(=O)(=O)c1ccc2ccccc2c1)c1cccnc1 | 14.2
77 | N/C(=N\OS(=O)(=O)c1ccccc1)c1cccnc1 | 9.86
78 | O=C(N/N=C\c1c[nH]c2ccccc12)c1ccc(O)cc1 | 134
79 | CC1CCC(C(C)C)C(OC(=O)Cn2c(COc3ccccc3)[n+](C)c3ccccc32)C1 (centres undefined) | 51.5
80 | O=C1C(Cl)=C(NCc2cccnc2)C(=O)c2ccccc21 | 41.6
81 | O=C(CSc1nc2ccccc2s1)N/N=C/c1cc([N+](=O)[O-])ccc1O | 44
82 | Cc1ccc(CC(=O)Nc2ncc([N+](=O)[O-])s2)cc1 | 94.4
83 | CNc1nc(SC)n(C)c(=O)c1N=O | 80.3
84 | NC1=NC[C@@H](Cc2ccc(O)cc2)N1CCc1cc(C(F)(F)F)cc(C(F)(F)F)c1 | 106
85 | O=C1OCC(CO)(CO)N=C1NNc1ccc(Cl)c(Cl)c1 | 26.1
86 | CCCCCCCCCCC[N+](C)(C)CC/C=C1/c2ccccc2Sc2ccc(Cl)cc21 | 31.4
87 | O=C(NC(=S)NNC(=O)c1cnccn1)c1ccc(F)cc1 | 25.1
88 | CNC[C@H](CC1CCCCC1)NC[C@H](Cc1ccccc1)NCCC12CC3CC(CC(C3)C1)C2 | 14.8

Row | Structure (SMILES) | IC50 [µM]
89 | O=C(CSc1ccccn1)Nc1nonc1[N+](=O)[O-] | 43.5
90 | Clc1ccc(CN2CCc3c([nH]c4ccccc34)C2)cc1Cl | 48.5
91 | O=C(/C=C/c1ccccc1Cl)c1ccccc(=O)c1O | 37.9
92 | O=C(N/N=C/c1ccccn1)c1cccs1 | 42.8
93 | Cc1ccc2c(c1)sc(-c1ccc(N(C)C)cc1)[n+]2C | 23.6
94 | CN(C)c1ccc(O)c2c1CC1CC3[C@@H](N(C)C)C(=O)C(C(N)=O)=C(O)[C@]3(O)C(=O)C1=C2O (some centres undefined) | 5.1
95 | CSc1cccc(NC(=O)/C=C/c2ccccc2)c1 | 84.9
96 | COc1cccc(Nc2cc(C)nc3ccccc23)c1 | 98.8
97 | Cc1nc2c(=O)n(C)c(=O)nc-2n(C)n1 | 0.781
98 | COc1ccc(NC(=O)c2[nH]ncc2[N+](=O)[O-])cc1 | 40.3
99 | Cc1nonc1C(=O)N/N=C/c1ccc(O)cc1O | 29.7
100 | CC1(C)N=C(N)N=C(N)N1c1ccc(Oc2ccc(Cl)cc2)c(Cl)c1 | 43
101 | CCCCCCCCCCCCCCCC[n+]1ccc(/C=N/O)cc1 | 34.2
102 | CCCCCOc1ccc(CSC2=NCCN2)cc1[N+](=O)[O-] | 95.1
103 | Cc1cc(O)c2c(c1)C(=O)C13C(=C2O)C(=O)[C@H]2[C@@H](O)[C@@H]1[C@H]1[C@H](O)[C@@H]3C(=O)C3=C(O)c4c(O)cc(C)cc4C(=O)C312 (some centres undefined) | 19.1
104 | O=C(/C=C/c1ccccc1Cl)Nc1cccc(O)c1 | 61.7
105 | O=C(c1ccc([N+](=O)[O-])o1)N1CCOCC1 | 24.4
106 | CC[C@H]1OC(=O)[C@H](C)[C@@H](O[C@H]2C[C@@](C)(OC)[C@@H](O)[C@H](C)O2)[C@H](C)[C@@H](O[C@@H]2O[C@H](C)C[C@H](N(C)C)[C@H]2O)[C@](C)(O)C[C@@H](C)CN(C)[C@H](C)[C@@H](O)[C@]1(C)O | 2.33
107 | CCOC(=O)Cn1c(=N)n(CCOc2ccc3ccccc3c2)c2ccccc21 | 79.1
108 | CCN1CCN(C(=O)c2cc3cc(Cl)ccc3[nH]2)CC1 | 67.4
109 | CC(NCc1ccccc1O)C12CC3CC(CC(C3)C1)C2 (centres undefined) | 81.4
